Test results as given in ChEMBL document CHEMBL1201862, “PubChem BioAssay data set” (2004).
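Compound exposure: 48 hours, 5 concentrations, 96-well plates. Abbreviation: GI50, concentration required for 50% inhibition of growth.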 Calls of active or inactive are those of the source. No stated cut-off is given here; in the data, active = GI50 up to about 1.1 µM and inactive = higher.

What was measured:
Assay in all cases: growth of human tumour cells (NCI), 48 h
BT-549 = system: BT-549
CAKI-1 = system: CAKI-1
COLO 205 = system: COLO 205
DU-145 = system: DU-145
HCT-116 = system: HCT-116
HOP-62 = system: HOP-62
HOP-92 = system: HOP-92
IGROV-1 = system: IGROV-1
K562 = system: K562
LOX IMVI = system: LOX IMVI
NCI-H460 = system: NCI-H460
OVCAR-3 = system: OVCAR-3
PC-3 = system: PC-3
SF-268 = system: SF-268
SK-MEL-2 = system: SK-MEL-2
SK-MEL-5 = system: SK-MEL-5
SW-620 = system: SW-620
OVCAR-8 = system: OVCAR-8
RPMI-8226 = system: RPMI-8226
SR = system: SR

| Compound | GI50 (BT-549) | GI50 (CAKI-1) | GI50 (COLO 205) | GI50 (DU-145) | GI50 (HCT-116) | GI50 (HOP-62) | GI50 (HOP-92) | GI50 (IGROV-1) | GI50 (K562) | GI50 (LOX IMVI) | GI50 (NCI-H460) | GI50 (OVCAR-3) | GI50 (PC-3) | GI50 (SF-268) | GI50 (SK-MEL-2) | GI50 (SK-MEL-5) | GI50 (SW-620) | GI50 (OVCAR-8) | GI50 (RPMI-8226) | GI50 (SR) |
| --- | --- | --- | --- | --- | --- | --- | --- | --- | --- | --- | --- | --- | --- | --- | --- | --- | --- | --- | --- | --- |
| c1ccc2c(c1)Nc1cccc3c1c-2nc1cc2ccccc2cc13 | 12.4 µM (inactive) | 1.64 µM (inactive) | 1.63 µM (inactive) | 1.7 µM (inactive) | 1.75 µM (inactive) | 1.72 µM (inactive) | 1.51 µM (inactive) | 1.41 µM (inactive) | 0.513 µM (active) | 1.55 µM (inactive) | 1.65 µM (inactive) | 1.59 µM (inactive) | 1.53 µM (inactive) | 1.71 µM (inactive) | 1.48 µM (inactive) | 1.7 µM (inactive) | 1.53 µM (inactive) | – | – | – |
| Cc1cccc(C)c1NC(=O)/C(CC(=O)CC(c1ccccc1)c1c(O)c2ccccc2oc1=O)=N/O (configuration not stated) | > 100 µM (inactive) | > 100 µM (inactive) | > 100 µM (inactive) | > 100 µM (inactive) | > 100 µM (inactive) | > 100 µM (inactive) | 31.3 µM (inactive) | > 100 µM (inactive) | – | > 100 µM (inactive) | > 100 µM (inactive) | > 100 µM (inactive) | > 100 µM (inactive) | > 100 µM (inactive) | > 100 µM (inactive) | > 100 µM (inactive) | > 100 µM (inactive) | > 100 µM (inactive) | – | – |
| CC1(C)N=C(c2ccccc2)SC12S[C@@H]1CCCC[C@H]1S2 | > 100 µM (inactive) | > 100 µM (inactive) | > 100 µM (inactive) | > 100 µM (inactive) | > 100 µM (inactive) | > 100 µM (inactive) | > 100 µM (inactive) | > 100 µM (inactive) | > 100 µM (inactive) | > 100 µM (inactive) | > 100 µM (inactive) | > 100 µM (inactive) | > 100 µM (inactive) | > 100 µM (inactive) | > 100 µM (inactive) | 17.4 µM (inactive) | 29.4 µM (inactive) | > 100 µM (inactive) | 32.2 µM (inactive) | – |
| O=C1Nc2ccccc2N/C1=C\C(=O)C(F)F | > 100 µM (inactive) | > 100 µM (inactive) | > 100 µM (inactive) | > 100 µM (inactive) | > 100 µM (inactive) | > 100 µM (inactive) | – | > 100 µM (inactive) | > 100 µM (inactive) | > 100 µM (inactive) | > 100 µM (inactive) | > 100 µM (inactive) | > 100 µM (inactive) | > 100 µM (inactive) | > 100 µM (inactive) | > 100 µM (inactive) | > 100 µM (inactive) | > 100 µM (inactive) | > 100 µM (inactive) | > 100 µM (inactive) |
| NC(=S)Nc1c(S(N)(=O)=O)cc(S(N)(=O)=O)c(Cl)c1Cl | > 100 µM (inactive) | > 100 µM (inactive) | > 100 µM (inactive) | > 100 µM (inactive) | > 100 µM (inactive) | > 100 µM (inactive) | > 100 µM (inactive) | > 100 µM (inactive) | > 100 µM (inactive) | > 100 µM (inactive) | – | > 100 µM (inactive) | > 100 µM (inactive) | > 100 µM (inactive) | > 100 µM (inactive) | > 100 µM (inactive) | > 100 µM (inactive) | > 100 µM (inactive) | > 100 µM (inactive) | – |
| CCOc1ccc(/N=N/C2C(=O)N(C(=O)CC(=O)Nc3ccccc3)N=C2C)cc1 (configuration not stated) | 33.6 µM (inactive) | 55.3 µM (inactive) | > 100 µM (inactive) | > 100 µM (inactive) | 29.1 µM (inactive) | 59.3 µM (inactive) | 28.5 µM (inactive) | 37.3 µM (inactive) | – | 43.3 µM (inactive) | 34.6 µM (inactive) | 53.8 µM (inactive) | > 100 µM (inactive) | 61.8 µM (inactive) | 66.4 µM (inactive) | 42.8 µM (inactive) | 33.4 µM (inactive) | > 100 µM (inactive) | – | 27.4 µM (inactive) |
| CCNCCNc1c2ccccc2nc2ccccc12 | 2.84 µM (inactive) | 0.698 µM (active) | 0.822 µM (active) | 1.62 µM (inactive) | 0.515 µM (active) | 0.461 µM (active) | – | 1.88 µM (inactive) | 0.551 µM (active) | 0.743 µM (active) | 0.453 µM (active) | 4.05 µM (inactive) | 0.828 µM (active) | 1.35 µM (inactive) | 1.51 µM (inactive) | 1.66 µM (inactive) | 0.147 µM (active) | 1.81 µM (inactive) | – | 0.594 µM (active) |
| CC(=O)Oc1ccc2cc(-c3ccccc3OC(C)=O)c(=O)oc2c1 | 4.17 µM (inactive) | – | > 100 µM (inactive) | 21.7 µM (inactive) | 66.5 µM (inactive) | 54.1 µM (inactive) | – | – | 38 µM (inactive) | 64.9 µM (inactive) | 86.5 µM (inactive) | 24.8 µM (inactive) | > 100 µM (inactive) | 19.1 µM (inactive) | 53.7 µM (inactive) | – | 64.6 µM (inactive) | 62.4 µM (inactive) | 28.8 µM (inactive) | 7.69 µM (inactive) |
